Reference: a melting point compilation (Tetko et al.; mined from patent text by program, amines drawn as free bases though some values may be those of a salt)

| melting point [°C] | SMILES |
| --- | --- |
| 220 to 221 | CN(C)CC(=O)Nc1cccc(-c2cc(-c3ccccc3O)nc(NC(=O)c3cccs3)c2C#N)c1 |
| 155 to 157 | CCCCCCNCc1ccc(COc2cccc3c2CN(C2CCC(=O)NC2=O)C3=O)cc1 (configuration not stated) |
| 70 to 72 | Cc1cc(OCCc2ccccc2)ccc1[N+](=O)[O-] |
| 265 | Cc1nc(NC(=O)c2cnn3c(C(F)(F)F)cc(-c4ccc(Cl)c(Cl)c4)nc23)sc1S(=O)(=O)NC(C)(C)CO |
| 175 to 176 | NC(=O)c1cc2c(Oc3cccc(C(F)(F)F)c3)cncc2s1 |
| 202 | COc1ccc(C2(O)C(=O)Nc3ccc(Cl)cc32)cc1 (configuration not stated) |
| 92 to 94 | N#CSCCNc1c(Cl)cccc1[N+](=O)[O-] |
| 133 to 135 | CN1c2ccccc2CC1c1ccccc1NC(=O)C(C)(C)C (configuration not stated) |
| 54 to 55 | BrCCCOc1ccc(Oc2ccccc2)cc1 |
| 256 to 259 | CN1C(=O)Cc2cc(C3=NNC(=O)C4CCC34)ccc21 (configuration not stated) |
| 94 to 96 | Cc1c(C)c(C(=O)CCl)c(C)c(C)c1Cl |
| 144 to 146 | CCc1c(N)nc(-c2ccc(Cl)c(OC)c2F)nc1C(=O)OC |
| 116 to 118 | CN(c1ccccc1)S(=O)(=O)c1ccc(C#CC(C)(O)C(F)(F)F)cc1 (configuration not stated) |
| 177 to 178 | Nc1ncc(-c2cccc(OCc3ccccc3)c2)cc1C(=O)NC1CC1 |
| 120 | CC1CN(CCCCC(c2ccc(F)cc2)c2ccc(F)cc2)CCN1CC(=O)Nc1c(Cl)cc(NC(N)=O)cc1Cl (configuration not stated) |
| 115 to 130 | CCN(C)c1nsc(NC(=O)N(C)C)c1C#N |
| 111 to 114 | CN(C)C=NS(=O)(=O)c1cc(CCNC(=O)C(F)(F)F)ccc1OCCOC(F)(F)F |
| 116 to 118 | O=C(Nc1ccc(C2(F)CCN(C(=O)OCc3ccccc3)CC2)c(F)c1)OCc1ccccc1 |
| 301 to 306 | Cc1ccc(S(=O)(=O)NC(Cc2ccccc2)C(=O)NCCCCC(C(=O)O)N(CC(C)C)S(=O)(=O)c2ccc(C)cc2)cc1 (configuration not stated) |
| 244 to 245 | N#Cc1cnc2cc3c(cc2c1Nc1ccc(F)c(Cl)c1)NCCO3 |
| 171 | O=C(O)c1nc2n(c(=O)c1OCc1ccccc1)CCOC2 |
| 110 to 112 | COc1ccn2nc(S(=O)(=O)Cl)nc2n1 |
| 149 to 150 | COC(=O)N=C(NC(=O)OC)Nc1ccc(S(=O)CC(C)C)cc1NC(=O)CS(C)=O (configuration not stated) |

| melting point [°C] | SMILES |
| --- | --- |
| > 220 | O=C(O)c1ccccc1Nc1ccc(-c2ccc(Cl)c(Cl)c2)cc1 |
| 145 to 146 | CCOC(=O)c1[nH]cc(-c2ccc(F)cc2)c1-c1ccccc1 |
| 196 to 198 | OCC1OC(n2cnc3c(SCc4ccc5nc[nH]c5c4)ncnc32)C(O)C1O (configuration not stated) |
| 216 to 217 | CCOC(=O)c1ncn2c1c(=O)n(CC)c1ncccc12 |
| 169 to 172 | O=c1c2c(Br)cc(Br)cc2n(Cc2ccccc2)c(=O)n1Cc1ccccc1 |
| 159 to 161 | CC(C)CCN1C(=O)C(NC(=O)Nc2ccccc2)C(=O)N(CCN(C)C)c2ccccc21 (configuration not stated) |
| 148 to 150 | CS(=O)(=O)c1ccc(-c2cnn(CC(F)(F)F)c(=O)c2OC2CCCC2)cc1 |
| 183 to 185 | COC(=O)c1coc(CN2C(=O)C3(COc4cc5c(cc43)OCO5)c3ccccc32)n1 (configuration not stated) |
| 213 to 214 | CN1CCN(CCCC2CCN(C(=O)N3c4ccccc4C(=O)Nc4cccnc43)CC2)CC1 |
| 110 to 112 | O=C(Nc1ccc(C2=CCN(C(=O)Nc3ccc(OCCO)cc3C(F)(F)F)CC2)cc1)Nc1ccccc1F |
| 147 to 148 | COC(=O)CCCc1cc2nc(Cl)ccc2n1S(=O)(=O)c1cccc(-c2cncs2)c1 |
| 75 to 77 | CCNC(c1ccccc1)(c1ccccc1)c1ccccc1 |
| 177 to 179 | Nc1n[nH]cc1C(=O)c1ccccc1 |
| 121 to 122 | CN1C(=O)CC[C@]2(C)c3ccc(-c4ccc(F)cc4)cc3CC[C@@H]12 |
| 141 | CCOC(=O)C(C(=O)c1ccc(C#N)cc1)C1c2ccccc2Oc2ccccc21 (configuration not stated) |
| 75 to 76 | CCSc1ccc([N+](=O)[O-])c(N)c1 |
| 177 to 178 | O=C(Nc1ccc(-n2nc(C(F)(F)F)cc2C(F)(F)F)cc1)c1ccccc1 |
| 192 to 193 | Cc1nc(C)c(-c2ccnc(Nc3ccc(N4CCCC4)cc3)n2)s1 |
| 156 to 158 | COc1cccc(CCc2c(C(=O)O)ccc(OC)c2OC)c1 |
| 264 to 266 | CNc1nc(-c2cc(C)c(O)c(C)c2)cc2ccc(CN3CCN(C)CC3)cc12 |
| 144 to 146 | O=C(Nc1ccc2ccc(-c3cccc(Br)c3)nc2n1)c1cccc(Br)c1 |
| 142 to 145 | Oc1cccc2c1c1cccc(Cl)c1n2Cc1ccc(F)cc1 |
| 186 to 187 | CC(O)(Cc1ccccc1)CN1CCC2(CC1)CSC1=C(O2)c2ccccc2C(=O)C1=O (configuration not stated) |

| melting point [°C] | SMILES |
| --- | --- |
| 249 to 251 | NC(=O)[C@H]1CN(c2ccc(C3=NNC(=O)CS3)c(F)c2)C(=O)O1 |
| 84 to 86 | COC(=O)C=Cc1cc2ccccc2o1 |
| 113 | COc1ccc(-c2c(C(=O)Cl)sc3ccccc23)cc1OC |
| 113 to 116 | CCCCCCCCCN(C)c1ccc(S(=O)(=O)Nc2ccccc2)cc1 |
| 172 to 174 | COC(=O)C1CCSC(C)(C)C(=O)N1 (configuration not stated) |
| 154 to 157 | COc1ccc2[nH]cc(SCCN=C3CCCN3C)c2c1 |
| 211 to 212 | CCNC(=O)c1sc(SC)c2c1CCc1sc(-c3ccccc3)nc1-2 |
| 210 to 212 | CCCn1c(CCOC)nc2c(N)nc3cc(Oc4ccc(S(C)(=O)=O)cc4)ccc3c21 |
| 135 to 136 | CC(=O)c1coc(S(N)(=O)=O)c1 |
| 300 to 301 | O=c1c2ccc(O)c(O)c2oc2cccc(O)c12 |
| 85 | Cc1cc(O)c(O)cc1CC=Cc1ccccc1 |
| 151 | CC(C)n1c(=O)n(C(=O)NCC2CCN(CC3(C(=O)O)CCCCC3)CC2)c2ccccc21 |
| 151 to 155 | COc1cc2c(cc1OC)CN(C(=O)C13CC4CC(CC(C4)C1)C3)CC2 |
| 258 to 259 | CC1(C)CCCC(C)(C)N1Cc1ccc2cc(NC(=O)c3ccc(-c4ccc(Cl)cc4)nc3)ccc2n1 |
| 53.5 to 54.5 | O=C(CCCCCOc1ccccc1)c1ccccc1 |
| 119 to 121 | CC(C)[Si](C(C)C)(C(C)C)N1C=C2C=C(Br)OCC3=C2C(=C1)CC3N(C)C (configuration not stated) |
| 239 to 241 | Cc1ccc(-c2nc3ccccc3c(=O)[nH]2)cc1 |
| 105 to 106 | CCCCn1c(=O)n(C)c(=O)c2nn(S(=O)(=O)CCCCl)cc21 |
| > 250 | CCOC(=O)Cn1c(=O)c(=O)[nH]c2ccc3ccc(-n4ccc(CNC(=O)c5ccccc5)c4)cc3c21 |
| 210 | Cn1cc(-c2ccccc2)c(=S)c(-c2cccc(C(F)(F)F)c2)c1 |
| 122 to 127 | COC(=O)C(Cc1cccc(OCC(=O)O)c1)c1nc(-c2ccccc2)c(-c2ccccc2)o1 (configuration not stated) |
| 112 to 113 | CN(Cc1ccccc1)c1nc(=O)c2cccnc2s1 |
| 121 to 123 | O=C1C(=O)N(CCl)c2ccccc21 |

| melting point [°C] | SMILES |
| --- | --- |
| 162 | Cc1cccc(Oc2c(-c3ccc(S(C)(=O)=O)cc3)oc(C)cc2=O)c1 |
| 96 to 98 | O=C1c2ccccc2CCC1n1cncn1 (configuration not stated) |
| 166 to 168 | CN1CCN(c2nc3sc4c(NCc5ccco5)ncnc4c3c3c2COC(C)(C)C3)CC1 |
| 54 to 55 | CCOC(=O)CC(=O)N(C)c1ccccc1[N+](=O)[O-] |
| 197 to 199 | CC(C)c1cc2nc(N)sc2cc1SC1=C(O)C[C@@](CCc2ccccc2)(C(C)C)OC1=O |
| 112 to 115 | C#Cc1ccc(Nc2c(-c3nnc(NCCO)o3)ccc(F)c2F)c(F)c1 |
| 133 to 137 | CC(O)c1ccc2c(c1)ncn2-c1cccc(-c2cccnc2O)c1 (configuration not stated) |
| 90.8 to 92.6 | CCC(C)COC(=O)c1ccc(OC(=O)c2ccc(O)cc2)cc1 (configuration not stated) |
| 93 to 95 | CC(C)c1nn(-c2ccc(Cl)cn2)cc1CCCO |
| 154 | COc1ccc(S(=O)(=O)n2c(=O)n(-c3ccccc3)c3cc(Cl)ccc32)cc1OC |
| 180 to 181 | COc1ccc(OC2COc3ccc(OCc4nc5cc(F)ccc5s4)cc3C2O)cc1 (configuration not stated) |
| 123 to 125 | Cc1ccc(NCCSC#N)c([N+](=O)[O-])c1 |
| 92 | O=C1COC(CCOC(=O)c2ccccc2)(c2ccc(F)c(F)c2)CN1 (configuration not stated) |
| 151 to 152 | Cc1oc(-c2ccccc2)nc1CCOc1ccc(CCC2SC(=O)NC2=O)cc1 (configuration not stated) |
| 238 to 239 | CC1C(=O)NC(c2ccc(NC(=O)CCl)cc2)c2ccccc21 (configuration not stated) |
| 132 to 133 | COc1ccc(C2CCN(C(=O)CC(N)=O)CC2)cc1OC1CCCC1 |
| 45 to 58 | CC(C)N[C@@H](Cc1ccccc1)C(=O)N1CCN(C(c2ccc(F)cc2)c2ccc(F)cc2)CC1 |
| 221 to 223 | N#Cc1c(-c2cccs2)[nH]c(C(F)(F)F)c1Cl |
| 155 to 156 | Cn1cc2c([C@H]3C[C@H]3CN)cccc2n1 (relative stereo) |
| 195 | CCOC(=O)Cc1ccc(-c2ccc3c(=O)c(C(=O)NC)c(N)n(CC)c3n2)cc1 |
| 209 to 210 | CC(C)c1cccc(C(C)C)c1NC(=O)Nc1ccccc1CCc1cc(C(C)(C)C)c(O)c(C(C)(C)C)c1 |
| 92 to 94 | COC(CN(C)c1nccc(Oc2ccc(NC(=O)c3cc(F)cc(N4CCOCC4)c3)c3ccccc23)n1)OC |

| SMILES | melting point [°C] |
| --- | --- |
| Brc1ccc(C2=CCN(CCSCc3c[nH]c4ccccc34)CC2)cc1 | 166 to 167 |
| CCOC(=O)c1ncn2c1[C@@H]1CCN1C(=O)c1c-2cccc1C(F)(F)F | 183 to 184 |
| CCOC(=O)C1(c2ccc3c(c2)OCC(Cc2ccc(-c4ccccc4)cc2)C3=O)CCCC1 (configuration not stated) | 50 to 56 |
| COc1ccc(C(=O)NC2N=C(c3ccccc3F)c3ccccc3NC2=O)cc1OC (racemic) | 206 to 208 |
| CCOC(=O)C(=O)c1cn(Cc2ccccc2)c2cc(-c3ccc(C(F)(F)F)cc3)ccc12 | 109 to 110 |
| O[C@H](COc1cccc2[nH]ccc12)CN1CC=C(c2c[nH]c3cc(F)ccc23)CC1 | 95 to 100 |
